Measured values as given in US10669312B2, “Peptide for suppressing osteoclast differentiation and use thereof” (CAREGEN CO., LTD., priority 2013, dated 2020).
Entries after “also recorded” stand apart in the source; their conditions may differ. Ends that are not written are not given here.

Columns and labels:
Type in all cases: cell-based
[1] = system: Raw264.7 cells; assay: Osteoclast differentiation inhibition, TRAP staining; settings: 10 ng/ml RANKL, 50 ng/ml TNF-α, 1 or 10 μg/ml peptide, five days
Method: In order to analyze the IL-3-like action and the inhibitory action of the peptides of SEQ ID NO: 1 and SEQ ID NO: 2, synthesized in synthetic example 1, TRAP staining was conducted using Raw264.7 strain differentiable into osteoclasts while referring to methods, such as tartrate-resistant acid phosphatase staining (Rizzino, et al. Cancer Res. 48:4266(1988)).
Raw264.7 cell lines (ATCC) were cultured in Dulbecco's modified Eagle's medium (DMEM, Gibco, U.S.A.) supplemented with 10% fetal bovine serum (FBS, Sigma) using each 250 ml-flask for tissue culture. The cultured cell lines were carefully detached from the bottom of the culture container using a pipette, followed by centrifugation, to obtain only cell precipitates. The cell precipitates were re-suspended in DMEM culture medium supplemented with 10% FBS, and then added to a […] for tissue culture plate at 1×10^4 cells per each well. For the induction of differentiation, the blank sample and RAW264.7 cells were treated with 10 ng/ml RANKL, 50 ng/ml TNF-α, and 1 μg/ml or 10 μg/ml synthesized peptides dissolved in 10% distilled water in a sterile state, […] After 72 hours, the medium was changed with the same culture liquid, and then the blank sample and the cells were treated with 10 ng/ml RANKL, 50 ng/ml TNF-α, and 1 μg/ml or 10 μg/ml synthesized peptides, and then cultured under the same conditions for 48 hours. […]

[2] = system: TRAP; assay: TRAP activity in differentiated Raw264.7 cells, absorbance 405 nm; settings: 10 ng/ml RANKL, 50 ng/ml TNF-α, 1 or 10 μg/ml peptide, five days
Method: Raw264.7 cells were treated in combination with 10 ng/ml RANKL, 50 ng/ml TNF-α, or the 1 or 10 μg/ml peptide synthesized in synthetic example 1 to induce differentiation for five days, and then the inhibition degree of the activity of TRAP, an osteoclast differentiation marker, was tested. After culture, the culture liquid was removed, and then 100 μl of a lysis buffer (20 mM tris buffer, 3% triton X-100) was added to disrupt cell walls. A reaction solution is prepared from 500 μl of a citrate solution (18 mM citric acid, 9 mM sodium chloride, 12 mM surfactant; pH 3.5), 50 μl of a tartrate solution, and 500 μl of a 20 mM phosphate substrate. 100 μl of the lysate and 100 μl of the reaction solution were added in the same amount, and then the reaction was conducted at 37° C. for 30 minutes. For colorimetric analysis, the absorbance was determined at 405 nm using a spectrophotometer. It was validated that, in cases where the treatment with the peptide of SEQ ID NO: 1 or SEQ ID NO: 2 together with RANKL and TNF-α, the peptides inhibited the activity of TRAP, which is an osteoclast differentiation marker, in a concentration-dependent manner (FIGS. 4a and 4b).

[3] = system: osteocalcin (OCN); assay: Osteoblast differentiation marker mRNA expression (PCR), OCN; settings: MC3T3-E1 cells, 10 or 50 μg/ml peptide, two days
Method: (§1) MC3T3-E1 cells were treated with 10 or 50 μg/ml of the peptides synthesized in synthetic example 1 to induce the differentiation for two days, and tests for verifying the mRNA expression of osteoblast differentiation markers, such as osteocalcin (OCN), osteoprotegerin (OPG), bone sialoprotein (BSP), and osteopontin (OPN), were conducted. Target-specific primer sequences used in PCR were as follows: OCN forward primer sequence, [NT] (SEQ ID NO:15) and OCN reverse primer sequence, [NT] (SEQ ID NO:16) (annealing temperature, 60° C.); OPG forward primer sequence, [NT] (SEQ ID NO:17) and OPG reverse primer sequence, [NT] (SEQ ID NO:18) (annealing temperature, 60° C.); BSP forward primer sequence, [NT] (SEQ ID NO:19) and BSP reverse primer sequence, [NT] (SEQ ID NO:20) (annealing temperature, 60° C.); OPN forward primer sequence, [NT] ID NO:21) and OPN reverse primer sequence, [NT] ID NO:22) (annealing temperature, 50° C.). […] Therefore, the peptides of the present invention can promote osteoblast differentiation by increasing the genetic expressions of OCN, OPG, BSP, and OPN, which are osteoblast differentiation markers.

[4] = system: osteoprotegerin (OPG); assay: Osteoblast differentiation marker mRNA expression (PCR), OPG; settings: MC3T3-E1 cells, 10 or 50 μg/ml peptide, two days
Method: as §1

[5] = system: bone sialoprotein (BSP); assay: Osteoblast differentiation marker mRNA expression (PCR), BSP; settings: MC3T3-E1 cells, 10 or 50 μg/ml peptide, two days
Method: as §1

[6] = system: osteopontin (OPN); assay: Osteoblast differentiation marker mRNA expression (PCR), OPN; settings: MC3T3-E1 cells, 10 or 50 μg/ml peptide, two days
Method: as §1

[7] = system: pSmad1/5/8; assay: Osteogenic differentiation signal, Smad1/5/8 phosphorylation, western blotting; settings: MC3T3-E1 cells, serum-starved 24 hours, 10 μg/ml peptide, 30 minutes
Method: In order to verify whether pSmad1/5/8, which is a signal involved in osteogenic differentiation, was activated by the present peptides, MC3T3-E1 cells were dispensed into 6-well plates at 2×10^5 cells, and then cultured for 24 hours under the conditions of 37° C. and 5% CO2. After 24 hours, the medium was changed with a serum-free medium, and then the cells were starved for 24 hours, treated with the 10 μg/ml peptides or 50 ng/ml BMP2, used as a positive control, for 30 minutes, washed with PBS, and dissolved in a lysis buffer, thereby obtaining proteins, which were then subjected to western blotting.

Sequence | RANKL- and TNF-α-induced differentiation of Raw264.7 into osteoclasts [1] | activity of TRAP, osteoclast differentiation marker [2] | mRNA level of osteocalcin (OCN) [3] | mRNA level of osteoprotegerin (OPG) [4] | mRNA level of bone sialoprotein (BSP) [5] | mRNA level of osteopontin (OPN) [6] | phosphorylation of Smad1/5/8 [7]
NCSNMICEIITH (cysteine pairing not given here) [SEQ ID NO: 1, IL-3-derived synthetic peptide, 12 amino acids] | inhibit | inhibited | increased | increased | increased | increased | led to the phosphorylation of Smad1/5/8; also recorded: increased
RRKLTFYLKTLE [SEQ ID NO: 2, IL-3-derived synthetic peptide, 12 amino acids] | inhibit | inhibited | increased | increased | increased | increased | led to the phosphorylation of Smad1/5/8; also recorded: increased
